Calls of active or inactive are those of the source. The calls are words filed in the database; no cut-off is given here.
How the values were obtained:
Neutrophil [1] = experiment: Induction of chemotaxis in BALB/c mouse neutrophils assessed as increase in cell polarization measured for 15 mins by Zigmond-chamber based microscopy; format: functional; details: dose 5-40 µM
Neutrophil [2] = experiment: Induction of phagocytosis in BALB/c mouse neutrophils cultured with CFSE-labeled Staphylococcus aureus ATCC 25923 at 10 uM pretreated for 1 hr followed by bacterial exposure measured after 1.5 hrs by fluorescence microscopy; format: functional, cell-based; details: time 2.5 hrs
RAW264.7 [3] = experiment: Induction of phagocytosis in mouse RAW264.7 cells cultured with Escherichia coli ATCC 25922 assessed as number of engulfed bacteria at 20 uM incubated for 24 hrs followed by bacterial exposure measured after 1 hr by plate counting method (reference value: 225); format: functional; details: time 25 hrs
RAW264.7 [4] = experiment: Induction of TNF-alpha expression in mouse RAW264.7 cells incubated for 24 hrs by ELISA; format: functional, cell-based; details: dose 2.5-20 µM
RAW264.7 [5] = experiment: Induction of MCP-1 expression in mouse RAW264.7 cells incubated for 24 hrs by ELISA; format: functional, cell-based; details: dose 2.5-20 µM
RAW264.7 [6] = experiment: Upregulation of phosphorylated ERK level in mouse RAW264.7 cells at 2.5 to 20 uM incubated for 4 hrs by Western blot analysis; format: functional, cell-based; details: dose 2.5-20 µM
RAW264.7 [7] = experiment: Upregulation of phosphorylated JNK level in mouse RAW264.7 cells at 2.5 to 20 uM incubated for 4 hrs by Western blot analysis; format: functional, cell-based; details: dose 2.5-20 µM
RAW264.7 [8] = experiment: Upregulation of phosphorylated Smad3 level in mouse RAW264.7 cells at 2.5 to 20 uM incubated for 4 hrs by Western blot analysis; format: functional, cell-based; details: dose 2.5-20 µM
RAW264.7 [9] = experiment: Effect on total Smad2 level in mouse RAW264.7 cells at 2.5 to 20 uM incubated for 4 hrs by Western blot analysis; format: functional, cell-based; details: dose 2.5-20 µM
RAW264.7 [10] = experiment: Upregulation of phosphorylated JNK level in Aprepitant-treated mouse RAW264.7 cells at 2.5 to 20 uM incubated for 4 hrs by Western blot analysis; format: functional, cell-based; details: dose 2.5-20 µM
HaCaT [11] = experiment: Induction of cell migration in human HaCaT cells assessed as healing rate at 20 uM measured after 48 hrs by scratch healing assay (reference value: 63.1 %); format: functional
HaCaT [12] = experiment: Induction of cell migration in Aprepitant-treated human HaCaT cells assessed as healing rate at 20 uM measured after 24 hrs by scratch healing assay (reference value: 36.8 %); format: functional
HaCaT [13] = experiment: Induction of cell migration in human HaCaT cells assessed as formation of cytoplasmic protrusions at 20 uM measured after 24 hrs by immunofluorescence microscopy; format: functional, cell-based
HaCaT [14] = experiment: Induction of cell migration in human HaCaT cells assessed as formation of filopodia extensions at 20 uM measured after 24 hrs by immunofluorescence microscopy; format: functional, cell-based
HUVEC [15] = experiment: Induction of cell migration in HUVEC cells assessed as formation of filopodia extensions at 20 uM measured after 24 hrs by immunofluorescence microscopy; format: functional, cell-based; details: Homo sapiens
HUVEC [16] = experiment: Angiogenic activity in Aprepitant-treated HUVEC cells assessed as increase in tube formation at 20 uM measured for 4 hrs by microscopic analysis; format: functional, cell-based; details: Homo sapiens
[17] = Induction of wound healing in BALB/c mouse model of full-thickness wounds at 50 ug/ml, TOP bid measured after 4 days (reference value: 48.6 %); format: functional; details: dose 50 µg/ml, time 4 day
[18] = Induction of wound healing in BALB/c mouse model of full-thickness wounds at 100 ug/ml, TOP bid measured after 2 days (reference value: 30.4 %); format: functional; details: dose 100 µg/ml, time 2 day
[19] = Induction of wound healing in BALB/c mouse model of full-thickness wounds at 100 ug/ml, TOP bid measured after 6 days (reference value: 71.7 %); format: functional; details: dose 100 µg/ml, time 6 day
[20] = Induction of wound healing in BALB/c mouse model of full-thickness wounds at 200 ug/ml, TOP bid measured after 2 days (reference value: 30.4 %); format: functional; details: dose 200 µg/ml, time 2 day
[21] = Induction of wound healing in BALB/c mouse model of full-thickness wounds at 200 ug/ml, TOP bid measured after 4 days (reference value: 48.6 %); format: functional; details: dose 200 µg/ml, time 4 day
[22] = Induction of wound healing in BALB/c mouse model of full-thickness wounds at 200 ug/ml, TOP bid measured after 6 days (reference value: 71.7 %); format: functional; details: dose 200 µg/ml, time 6 day
[23] = Toxicity in BALB/c mouse model of full-thickness wounds assessed as adverse effect on body weight at 50 to 200 ug/ml, TOP bid measured upto 8 days; details: in vivo, topical_or_ocular, 192 h, dose 50-200 µg/ml, time < 8 day
[24] = Toxicity in BALB/c mouse model of full-thickness wounds assessed as inflammatory foci in spleen at 200 ug/ml, TOP bid measured upto 8 days by H and E staining based analysis; format: tissue-based; details: in vivo, topical_or_ocular, 192 h, dose 200 µg/ml, time < 8 day
[25] = Toxicity in BALB/c mouse model of full-thickness wounds assessed as inflammatory foci in liver at 200 ug/ml, TOP bid measured upto 8 days by H and E staining based analysis; format: tissue-based; details: in vivo, topical_or_ocular, 192 h, dose 200 µg/ml, time < 8 day
Splenic fibroblast = experiment: Effect on cell migration in human […] fibroblasts at 20 uM incubated upto 48 hrs by scratch healing assay; format: functional, cell-based
[26] = Induction of wound healing in BALB/c mouse model of full-thickness wounds assessed as increase in collagen deposition in wound sites at 50 to 200 ug/ml, TOP bid measured after 8 days by Masson's Trichome staining based analysis relative to control; format: functional; details: dose 50-200 µg/ml, time 8 day, at 50 to 200 µg/mL
Mus musculus [27] = species on record: Mus musculus; experiment: Induction of wound healing in BALB/c mouse model of full-thickness wounds assessed as increase in phosphorylated Smad2 level in wound skin at 50 to 200 ug/ml, TOP bid measured after 4 days by Western blot analysis; format: functional; details: dose 50-200 µg/ml, time 4.0 day
Mus musculus [28] = species on record: Mus musculus; experiment: Induction of wound healing in BALB/c mouse model of full-thickness wounds assessed as increase in recruitment of total macrophages in wound skin at 50 ug/ml, TOP bid measured after 2 days by IHC analysis; format: functional; details: dose 50.0 µg/ml, time 2.0 day
Mus musculus [29] = species on record: Mus musculus; experiment: Induction of wound healing in BALB/c mouse model of full-thickness wounds assessed as increase in recruitment of M1-type macrophages in wound skin at 50 ug/ml, TOP bid measured after 2 days by IHC analysis; format: functional; details: dose 50.0 µg/ml, time 2.0 day
[30] = Induction of wound healing in BALB/c mouse model of full-thickness wounds assessed as recruitment of M1-type macrophages in wound skin at 50 ug/ml, TOP bid measured after 4 days by flow cytometry (reference value: 85.3 %); format: functional; details: dose 50 µg/ml, time 4 day
Mus musculus [31] = species on record: Mus musculus; experiment: Induction of wound healing in BALB/c mouse model of full-thickness wounds assessed as […] in IL-10 level in wound skin at 50 ug/ml, TOP bid measured after 2 days by ELISA; format: functional; details: dose 50.0 µg/ml, time 2.0 day
Mus musculus [32] = species on record: Mus musculus; experiment: Induction of wound healing in BALB/c mouse model of full-thickness wounds assessed as increase in IL-10 level in wound skin at 50 ug/ml, TOP bid measured after 4 days by ELISA; format: functional; details: dose 50.0 µg/ml, time 4.0 day

H-KPNPDRFYGLM-NH2
Activity (Neutrophil [1]): Dose-Dependent Effect
Activity (Neutrophil [2]): Active
Activity (RAW264.7 [3]): 350
Activity (RAW264.7 [4]): Dose-Dependent Effect
Activity (RAW264.7 [5]): Dose-Dependent Effect
Activity (RAW264.7 [6]): Active
Activity (RAW264.7 [7]): Active
Activity (RAW264.7 [8]): Active
Activity (RAW264.7 [9]): inactive
Activity (RAW264.7 [10]): inactive
Activity (HaCaT [11]): 92.8%
Activity (HaCaT [12]): 41.7%
Activity (HaCaT [13]): Active
Activity (HaCaT [14]): Active
Activity (HUVEC [15]): Active
Activity (HUVEC [16]): inactive
Activity [17]: 64.8%
Activity [18]: 46.6%
Activity [19]: 93.9%
Activity [20]: 52.8%
Activity [21]: 77.1%
Activity [22]: 100%
Activity [23]: Non-Toxic
Activity [24]: Non-Toxic
Activity [25]: Non-Toxic
Activity (Splenic fibroblast): inactive
Activity [26]: 197%
Activity (Mus musculus [27]): Active
Activity (Mus musculus [28]): Active
Activity (Mus musculus [29]): Active
Activity [30]: 69.9%
Activity (Mus musculus [31]): Active
Activity (Mus musculus [32]): Active

Source: ChEMBL document CHEMBL5375968, “Peptide TK-HR from the Skin of Chinese Folk Medicine Frog Hoplobatrachus Rugulosus Accelerates Wound Healing via the Activation of the Neurokinin-1 Receptor” (J Med Chem, 2023)
